Test results: patent EP4644377A1, “LIPID COMPOUND FOR GENE DELIVERY AND LIPID NANOPARTICLE COMPRISING SAME” (NANJING CYBERNAX BIOMEDICAL TECHNOLOGY CO., LTD., priority 2022, dated 2024)

What was measured:
C57Bl/6 mice = assay: Luciferase mRNA delivery in mice, IVIS chemiluminescence; assay type: in vivo
Protocol: The animal experiments were reviewed and approved by the Ethics Committee of Zhejiang Medical College and the Ethics Committee of Zhejiang University of Technology. 6- to 8-week-old male C57Bl/6 mice were randomly grouped with 3 mice in each group. The mice in each group received a lipid nanoparticle coating mRNA expressing a luciferase via tail vein injection at a dose of 0.25 mg/kg mouse body weight (calculated by the mass of coated mRNA). […] The mRNA delivery effect of the lipid nanoparticle is quantitatively compared through a total chemiluminiscence quantity (Total Flux p/s) of a mouse whole body within unit time (shown in Table 5).
Table 13 and Table 14 show whole body chemiluminescent signals when LNPs (formulation 2) composed of the lipids in some examples deliver Flue mRNA in mice. The delivery dose of Flue mRNA was 0.25 mg/kg. 6 h after LNP injection, 150 mg/kg of D-luciferin was intraperitoneally injected into the mice, and then the whole body chemiluminescent signals were collected in the IVIS imaging system after 10 min. […]

[1] = Determination of total nucleic acid and encapsulation efficiency (Quant-iT RiboGreen RNA kit); assay type: physicochemical; settings: LNP with RSV-mRNA, lipid ratio of formulation 1, N/P 6
Protocol: The content of nucleic acids in an LNP sample was determined through a Quant-iT™ RiboGreen® RNA detection kit (Thermofisher). The detection of total RNA concentration: 5 µl of to-be-detected sample was placed into 2 ml of ep tube, 245 µl of 1xTE Buffer was added, and the above materials were evenly mixed to obtain a "diluted sample". 100 µl of the above "diluted sample" was taken, 100 µl of 10% TritonX-100 solution was added, the above materials were sufficiently and evenly mixed, and then the obtained mixture was demulsified for 15 min in metal bath under the conditions of 37°C and 300 rpm; and 80 µl of 1xTE Buffer was added into an ELISA plate, 20 µl of demulsified sample was taken and added into the ELISA plate to be evenly mixed, and then 100 µl of fluorescence dye (2000-fold dilution) solution was added.
Detection of free RNA concentration: 90 µl of 1xTE Buffer was added into the ELISA plate, 10 µl of the above "diluted sample" was taken, and 100 µl of fluorescence dye (2000-fold dilution) solution was added.
Meanwhile, a series of standard solutions having different concentrations were set in the ELISA plate as quantitative standard curves. The samples were loaded onto the ELISA plate to detect fluorescence signals (with an excitation wavelength of 480 nm and an emission detection wavelength of 520). A corresponding RNA concentration was obtained after the fluorescence signal in each well was converted via the standard curve.
Calculation method of encapsulation efficiency: EE(%) = (Concentration of total mRNA−concentration of free mRNA)/(Concentration of total mRNA)∗100% [formula]

[2] = Particle size detection of LNP (Brookhaven NanoBrook Omni, DLS); assay type: physicochemical
Protocol: Step 1. Preparation of a lipid solution and a nucleic acid solution: unless otherwise specified, all aqueous solutions involved in examples were prepared from deionized water without nucleases. An ionizable lipid, a phospholipid (disaturated phosphatidylcholine (DSPC) or dioleoylphosphatidylethanolamine (DOPE)), cholesterol and a PEG lipid (DMG-PEG2000) were mixed in a molar ratio of 50/10/38.5/1.5 (containing DSPC, formulation 1) or 36.5/16/46.5/2.5 (containing DOPE, formulation 2) and dissolved into an ethanol solution. Meanwhile, a nucleic acid (a mass ratio of ionizable lipid/nucleic acid was 10/1) was dissolved into a citrate buffer solution of pH=3, so that a final volume ratio of the ethanol solution to the citrate solution was 1/3.
Step 2. Preparation of LNP by mixing the lipid solution with the nucleic acid solution: the lipid ethanol solution and the nucleic acid aqueous solution that were prepared in Step 1 were respectively put into a sterile syringe and placed in a Precision Nanosystem Ignite instrument, the extrusion flow speeds of the ethanol solution and the water phase solution were respectively set as 3 ml/min and 9 ml/min in instrument program settings. A microfluidic chip was inserted into the instrument and LNP preparation was initiated, and then a solution mixed by the chip was collected.
Step 2.1. Preparation of an LNP solution coating nucleic acid in a porous plate: a solution of an ionizable lipid, a phospholipid (DSPC or DOPE), cholesterol and a PEG lipid (DMG-PEG2000) in ethanol was added into each well of a 96-well deep plate, so that a molar ratio of four component lipids in each well was 50/10/38.5/1.5 (containing DSPC, formulation 1) or 36.5/16/46.5/2.5 (containing DOPE, formulation 2). Then, a citrate buffer solution (pH=3, the mass of nucleic acid added into each well was 1/10 that of the ionizable lipid in this well) that was three times as ethanol in volume and dissolved with a nucleic acid molecule was quickly added into the well plate through a multi-channel pipette or an automatic liquid dispensing system and rapidly mixed, so as to obtain the LNP solution coating nucleic acid.
Step 3. Purification of the LNP solution: the LNP solution collected in Step 2 or Step 2.1 was subjected to dialysis-concentration-filtration operations, so as to obtain a final LNP solution coating nucleic acid for subsequent testing.
The LNP solution coating nucleic acid obtained in Step 3 was diluted so that the final lipid concentration was between 0.01 mg/ml and 0.1 mg/ml. The diluted solution was added into a sample reservoir, and then subjected to particle size detection in a Brookhaven NanoBrook Omni instrument.

[3] = LNP formulation 2 (SM102: formulation 1), luciferase mRNA 0.25 mg/kg, tail vein, C57Bl/6 mice, whole body signal 6 h after LNP, 10 min after D-luciferin 150 mg/kg i.p.
[4] = LNPs after coating mRNA (luciferase)
[5] = LNPs (formulation 2), Flue mRNA 0.25 mg/kg, tail vein injection, whole body signal 6 h after LNP injection, 10 min after 150 mg/kg D-luciferin i.p.

Structure (SMILES)	Chemiluminescent signal (p/s) (C57Bl/6 mice; [3])	encapsulation efficiency [1] [%]	Particle size ([2]; LNP with RSV-mRNA, lipid ratio of formulation 1, N/P 6) [nm]	PDI [2, 4]	Particle size [2, 4] [nm·days]	Chemiluminescent signal (p/s) (C57Bl/6 mice; [5])	delivery efficiency in mRNA mouse in vivo delivery (C57Bl/6 mice; result in words)
CCCCCCCCCCCOC(=O)CCCCCN(CCO)CCCCCCCC(=O)OC(CCCCCCCC)CCCCCCCC [SM102, heptadec-9-yl-8-((2-hydroxyethyl) (6-oxo-6-((undecyloxy)hexyl)amino) octanoate, reference compound]	3.93E+09	97.9	96.1	–	–	–	–
CCCCCCCCCCCC(=O)N(CCCN(CC)CC)C(C(=O)NCCCCCCCC(=O)OC(CCCCCCCC)CCCCCCCC)C(C)(C)C (stereo not shown) [Lipid 237]	3.86E+09	–	–	0.14	234.57 ± 1.84	–	–
CCCCCCCCC(CC)OC(=O)CCCCCCCNC(=O)C(N(CCCN(C)C)C(=O)CCCCCCCCCC(=O)OC(CCCCCC)CCCCCC)C(C)(C)C (stereo not shown) [Lipid 407]	–	–	–	0.18	97.4 ± 0.64	8.00E+10	–
CCCCCCCCCCCC(=O)N(CCCN(C)C)C(C(=O)NCCCCCCCC(=O)OC(CCCCCCCC)CCCCCCCC)C(C)(C)C (stereo not shown) [Lipid 234]	1.16E+10	–	–	0.17	240.23 ± 1.39	–	–
CCCCCCCCC(CCCCCCCC)OC(=O)CCCCCCCNC(=O)C(N(CCCN(C)C)C(=O)CCCCCCCCCC(=O)OC(CCCCCC)CCCCCC)C(C)(C)C (stereo not shown) [Lipid 408]	–	–	–	0.18	101.7 ± 5.09	1.03E+11	–
CCCCC/C=C\C/C=C\CCCCCCCC(=O)N(CCCN(C)C)C(C)C(=O)NCCCCCCCC(=O)OC(CCCCCCCC)CCCCCCCC (stereo not shown) [Lipid 949]	–	–	–	0.19	115.8 ± 0.26	6.88E+05	–
CCCCCCCCC(CCCCCC)C(=O)OCCCCCCC(=O)N(CCCN(C)C)C(C(=O)NCCCCCCCC(=O)OCC(C)CCCCCCC)C(C)(C)C (stereo not shown) [Lipid 445]	–	–	–	0.24	94.7 ± 0.95	2.15E+09	–
CCCCCCCCC(CC)OC(=O)CCCCCCC(=O)N(CCCN(C)C)C(C(=O)NCCCCCCOC(=O)C(CCCCCC)CCCCCCCC)C(C)(C)C (stereo not shown) [Lipid 406]	–	–	–	0.17	95.9 ± 0.75	1.04E+11	–
CCCCC/C=C\C/C=C\CCCCCCCC(=O)N(CCCN(C)C)C(C(=O)NCCCCCCCC(=O)OC(CCCCCCCC)CCCCCCCC)C(C)(C)C (stereo not shown) [Lipid 175]	7.07E+09	–	–	0.18	178.88 ± 3.61	–	high delivery efficiency
CCCCC/C=C\C/C=C\CCCCCCCC(=O)N(CCCN(C)C)C(C(=O)NCCCCCCCC(=O)OC(CCCCCCCC)CCCCCCCC)C(C)C (stereo not shown) [Lipid 942]	–	–	–	0.25	135.8 ± 2.13	8.15E+08	–
CCCCCCCCC(CC)OC(=O)CCCCCCC(=O)N(CCCN(C)C)C(C(=O)NCCCCCCCC(=O)OC(CCCCCCCC)CCCCCCCC)C(C)(C)C (stereo not shown) [Lipid 402]	–	–	–	0.25	84.3 ± 3.42	4.20E+10	–
CC/C=C\C/C=C\C/C=C\C/C=C\C/C=C\CCCC(=O)N(CCCN(CC)CC)C(C(=O)NCCCCCCCCCCCCCC)C(C)(C)C (stereo not shown) [Lipid 162]	6.66E+09	–	–	0.27	261.64 ± 5.92	–	–
CCCCCCCC(C)COC(=O)CCCCCCCNC(=O)C(N(CCCN(C)C)C(=O)CCCCCCCCCC(=O)OC(CCCCCC)CCCCCC)C(C)(C)C (stereo not shown) [Lipid 409]	–	–	–	0.25	95 ± 0.75	3.08E+10	–
CCCCCCCCCCCC(=O)N(CCCN(C)C)C(C(=O)NCCCOC(=O)CCCCCCCC)C(C)(C)C (stereo not shown) [Lipid 163]	1.73E+09	–	–	0.17	200.94 ± 5.63	–	–
CCCCCCCCC(CCCCCC)COC(=O)CCCCCCC(=O)N(CCCN(C)C)C(C(=O)NCCCCCCCC(=O)OC(CC)CCCCCCCC)C(C)(C)C (stereo not shown) [Lipid 431]	–	–	–	0.26	114 ± 2.51	5.11E+10	–
CCCCCCCCC(CCCCCCCC)OC(=O)CCCCCCCNC(=O)C(N(CCCN(C)C)C(=O)CCCCCCC(=O)OCC(C)CCCCCCC)C(C)(C)C (stereo not shown) [Lipid 420]	–	–	–	0.22	110.3 ± 1.65	6.69E+09	–
CCCCC/C=C\C/C=C\CCCCCCCC(=O)N(CCCN(CC)CC)C(C(=O)NCCCCCCCCCCCCCC)C(C)(C)C (stereo not shown) [Lipid 160]	1.07E+10	–	–	0.23	201.12 ± 47.7	–	–
CCCCC/C=C\C/C=C\CCCCCCCC(=O)N(CCN(C)CCO)C(C(=O)NCCCCCCCCCCCCCC)C(C)(C)C (stereo not shown) [Lipid 195]	1.43E+09	–	–	0.19	204.79 ± 3.09	–	–
CCCCCCCC/C=C\CCCCCCCCOC(=O)CCC(=O)N(CCCN(C)C)C(C(=O)NCCCC(=O)OCCCCCCCC)C(C)(C)C (stereo not shown) [Lipid 223]	1.26E+10	–	–	0.19	190.71 ± 1.15	–	–
